Experimental data as given in patent publication US6673812B1, “Preventives/remedies for glaucoma” (Senju Pharmaceutical Co., Ltd., priority 1998, dated 2004).

System: Japanese white rabbits
Experiment: Ophthalmic disorder caused by 8-time-a-day instillation to white rabbits: macroscopic observation of anterior segment of the eye
Assay type: in vivo, rabbit
Design: scale not given here
Conditions: mean of three eyes
Experimental: The test drugs, Compound A and Compound C, were each dissolved in the following base at a concentration of 0.125, 0.25, 0.5 and 1.0% and adjusted to pH 7 for use in this experiment. [table] Japanese white rabbits (body weight about 2 kg) purchased from Japan Laboratory Animals, INC. were used. These animals were bred in a breeding chamber set to temperature 23±3° C., humidity 55±10% and fed on limited amount of 100 g a day of a solid feed (Labo R Stock, Nihon-Nosan Kogyo K.K.). They were allowed free access to tap water. Instillation: Using a micropipet, each test drug (100 μl) was instilled into the right eye of each animal 8 times at one hour intervals. Into the left eye was instilled a base in the same manner. Observation: anterior segment of the eye was macroscopically observed before instillation and 30 min after 2nd, 4th, 6th and 8th administrations, according to the macroscopic criteria for ocular lesions as shown in Table 1 (Naruyuki Fukui, […] no Rinshou 4, 277-289, 1970). In addition, corneal staining spot was observed before instillation and after 8th administration. [table]

[1] = 0.125%, 30 min after 2nd instillation
[2] = 0.125%, 30 min after 4th instillation
[3] = 0.125%, 30 min after 6th instillation
[4] = 0.125%, 30 min after 8th instillation
[5] = 0.25%, 30 min after 2nd instillation
[6] = 0.25%, 30 min after 4th instillation
[7] = 0.25%, 30 min after 6th instillation
[8] = 0.25%, 30 min after 8th instillation

SMILES: C[C@@H](N)c1ccc(C(=O)Nc2ccncc2)cc1.Cl.Cl [Compound C, (R)-(+)-N-(4-pyridyl)-4-(1-aminoethyl)benzamide 2HCl]
- Score of ocular lesions: Conjunctiva Bulbar redness [1]: 0
- Score of ocular lesions: Conjunctiva Discharge [1]: 0
- Score of ocular lesions: Conjunctiva Nictitating membrane [1]: 0
- Score of ocular lesions: Conjunctiva Palpebral edema [1]: 0
- Score of ocular lesions: Conjunctiva Palpebral redness [1]: 0
- Score of ocular lesions: Cornea Area [1]: 0
- Score of ocular lesions: Cornea Degree [1]: 0
- Score of ocular lesions: Iris Values [1]: 0
- Score of ocular lesions: Total score [1]: 0
- Score of ocular lesions: Conjunctiva Bulbar redness [2]: 0.50
- Score of ocular lesions: Conjunctiva Discharge [2]: 0.17
- Score of ocular lesions: Conjunctiva Nictitating membrane [2]: 0.33
- Score of ocular lesions: Conjunctiva Palpebral edema [2]: 0
- Score of ocular lesions: Conjunctiva Palpebral redness [2]: 0
- Score of ocular lesions: Cornea Area [2]: 0
- Score of ocular lesions: Cornea Degree [2]: 0
- Score of ocular lesions: Iris Values [2]: 0
- Score of ocular lesions: Total score [2]: 0.83
- Score of ocular lesions: Conjunctiva Bulbar redness [3]: 0.17
- Score of ocular lesions: Conjunctiva Discharge [3]: 0.50
- Score of ocular lesions: Conjunctiva Nictitating membrane [3]: 0.33
- Score of ocular lesions: Conjunctiva Palpebral edema [3]: 0.17
- Score of ocular lesions: Conjunctiva Palpebral redness [3]: 0.17
- Score of ocular lesions: Cornea Area [3]: 0
- Score of ocular lesions: Cornea Degree [3]: 0
- Score of ocular lesions: Iris Values [3]: 0
- Score of ocular lesions: Total score [3]: 0.84
- Score of ocular lesions: Conjunctiva Bulbar redness [4]: 0.50
- Score of ocular lesions: Conjunctiva Discharge [4]: 0
- Score of ocular lesions: Conjunctiva Nictitating membrane [4]: 0.50
- Score of ocular lesions: Conjunctiva Palpebral edema [4]: 0.33
- Score of ocular lesions: Conjunctiva Palpebral redness [4]: 0.33
- Score of ocular lesions: Cornea Area [4]: 0
- Score of ocular lesions: Cornea Degree [4]: 0
- Score of ocular lesions: Iris Values [4]: 0
- Score of ocular lesions: Total score [4]: 1.66
- Score of ocular lesions: Conjunctiva Bulbar redness (0.125%, Before instillation): 0
- Score of ocular lesions: Conjunctiva Discharge (0.125%, Before instillation): 0
- Score of ocular lesions: Conjunctiva Nictitating membrane (0.125%, Before instillation): 0
- Score of ocular lesions: Conjunctiva Palpebral edema (0.125%, Before instillation): 0
- Score of ocular lesions: Conjunctiva Palpebral redness (0.125%, Before instillation): 0
- Score of ocular lesions: Cornea Area (0.125%, Before instillation): 0
- Score of ocular lesions: Cornea Degree (0.125%, Before instillation): 0
- Score of ocular lesions: Iris Values (0.125%, Before instillation): 0
- Score of ocular lesions: Total score (0.125%, Before instillation): 0
- Score of ocular lesions: Conjunctiva Bulbar redness [5]: 0.33
- Score of ocular lesions: Conjunctiva Discharge [5]: 0
- Score of ocular lesions: Conjunctiva Nictitating membrane [5]: 0.33
- Score of ocular lesions: Conjunctiva Palpebral edema [5]: 0
- Score of ocular lesions: Conjunctiva Palpebral redness [5]: 0
- Score of ocular lesions: Cornea Area [5]: 0
- Score of ocular lesions: Cornea Degree [5]: 0
- Score of ocular lesions: Iris Values [5]: 0
- Score of ocular lesions: Total score [5]: 0.66
- Score of ocular lesions: Conjunctiva Bulbar redness [6]: 0.33
- Score of ocular lesions: Conjunctiva Discharge [6]: 0
- Score of ocular lesions: Conjunctiva Nictitating membrane [6]: 0.50
- Score of ocular lesions: Conjunctiva Palpebral edema [6]: 0
- Score of ocular lesions: Conjunctiva Palpebral redness [6]: 0.33
- Score of ocular lesions: Cornea Area [6]: 0
- Score of ocular lesions: Cornea Degree [6]: 0
- Score of ocular lesions: Iris Values [6]: 0
- Score of ocular lesions: Total score [6]: 1.50
- Score of ocular lesions: Conjunctiva Bulbar redness [7]: 0.50
- Score of ocular lesions: Conjunctiva Discharge [7]: 0.67
- Score of ocular lesions: Conjunctiva Nictitating membrane [7]: 0.33
- Score of ocular lesions: Conjunctiva Palpebral edema [7]: 0.17
- Score of ocular lesions: Conjunctiva Palpebral redness [7]: 0.33
- Score of ocular lesions: Cornea Area [7]: 0
- Score of ocular lesions: Cornea Degree [7]: 0
- Score of ocular lesions: Iris Values [7]: 0
- Score of ocular lesions: Total score [7]: 2.83
- Score of ocular lesions: Conjunctiva Bulbar redness [8]: 0.67
- Score of ocular lesions: Conjunctiva Discharge [8]: 1.00
- Score of ocular lesions: Conjunctiva Nictitating membrane [8]: 1.33
- Score of ocular lesions: Conjunctiva Palpebral edema [8]: 0
- Score of ocular lesions: Conjunctiva Palpebral redness [8]: 0
- Score of ocular lesions: Cornea Area [8]: 0
- Score of ocular lesions: Cornea Degree [8]: 0
- Score of ocular lesions: Iris Values [8]: 0
- Score of ocular lesions: Total score [8]: 3.00
- Score of ocular lesions: Conjunctiva Bulbar redness (0.25%, Before instillation): 0
- Score of ocular lesions: Conjunctiva Discharge (0.25%, Before instillation): 0
- Score of ocular lesions: Conjunctiva Nictitating membrane (0.25%, Before instillation): 0
- Score of ocular lesions: Conjunctiva Palpebral edema (0.25%, Before instillation): 0
- Score of ocular lesions: Conjunctiva Palpebral redness (0.25%, Before instillation): 0
- Score of ocular lesions: Cornea Area (0.25%, Before instillation): 0
- Score of ocular lesions: Cornea Degree (0.25%, Before instillation): 0
- Score of ocular lesions: Iris Values (0.25%, Before instillation): 0
- Score of ocular lesions: Total score (0.25%, Before instillation): 0
